According to ChEMBL document CHEMBL1146611, “Design and synthesis of novel pyrrolidine-containing bradykinin antagonists” (Bioorg Med Chem Lett, 2003):

Key:
[1] = molecular target: T1, B1 bradykinin receptor (Homo sapiens) (UniProt P46663); test: In vitro binding affinity against Bradykinin receptor B1 at 1 uM concentration
T1 sequence (whole entry): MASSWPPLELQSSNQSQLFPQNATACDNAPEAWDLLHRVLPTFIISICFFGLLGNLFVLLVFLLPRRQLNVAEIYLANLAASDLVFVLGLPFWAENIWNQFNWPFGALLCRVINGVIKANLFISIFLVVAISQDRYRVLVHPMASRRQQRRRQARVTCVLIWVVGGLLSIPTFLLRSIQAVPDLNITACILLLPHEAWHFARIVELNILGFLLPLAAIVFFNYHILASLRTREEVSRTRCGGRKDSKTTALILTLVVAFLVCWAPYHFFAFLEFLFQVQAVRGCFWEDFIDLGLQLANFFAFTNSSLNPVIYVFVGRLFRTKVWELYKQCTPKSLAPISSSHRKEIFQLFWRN

[2] = molecular target: T2, B2 bradykinin receptor (Homo sapiens) (UniProt P30411); test: In vitro binding affinity against Bradykinin receptor B2 at 1 uM concentration
T2 sequence (whole entry): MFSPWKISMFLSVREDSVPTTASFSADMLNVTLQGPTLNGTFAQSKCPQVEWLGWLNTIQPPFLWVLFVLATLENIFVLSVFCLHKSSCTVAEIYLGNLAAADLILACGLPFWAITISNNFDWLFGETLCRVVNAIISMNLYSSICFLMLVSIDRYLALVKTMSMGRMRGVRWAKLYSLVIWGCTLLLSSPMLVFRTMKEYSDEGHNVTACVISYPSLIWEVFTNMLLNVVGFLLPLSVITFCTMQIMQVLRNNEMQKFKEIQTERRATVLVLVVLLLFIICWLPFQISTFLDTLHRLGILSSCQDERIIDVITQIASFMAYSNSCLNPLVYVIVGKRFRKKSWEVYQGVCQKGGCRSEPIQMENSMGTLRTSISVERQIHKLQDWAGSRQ

B2 bradykinin receptor = molecular target: T3, B2 bradykinin receptor (Homo sapiens, UniProt P30411); test: In vitro binding affinity against Bradykinin receptor B2
T3 sequence (P30411 whole entry): T2 sequence (whole entry)

Row | SMILES | inhibition [1] | inhibition [2] | Ki (B2 bradykinin receptor)
1 | Cc1ccc2cccc(OCc3c(C)ccc(N4CCC[C@@H]4CN4C(=O)c5ccccc5C4=O)c3C)c2n1 | 1% | 8% | –
2 | CC(=O)Nc1ccc(/C=C/C(=O)NC[C@@H]2CCCN2c2ccc(C)c(COc3cccc4ccc(C)nc34)c2C)cn1 | 1% | 84% | 33 nM
3 | Cc1ccc2cccc(OCc3c(C)ccc(N4CCC[C@H]4CN4C(=O)c5ccccc5C4=O)c3C)c2n1 | 5% | 8% | –
4 | Cc1ccc2cccc(OCc3c(C)ccc(N4CCC[C@@H]4CO)c3C)c2n1 | 9% | 12% | –
5 | CC(=O)Nc1ccc(/C=C/C(=O)NC[C@H]2CCCN2c2ccc(C)c(COc3cccc4ccc(C)nc34)c2C)cn1 | 1% | 76% | 46 nM

Continued, values first:

Row | inhibition [1] | inhibition [2] | Ki (B2 bradykinin receptor) | SMILES
6 | 1% | 19% | – | Cc1ccc2cccc(OCc3c(C)ccc(N4CCC[C@H]4CO)c3C)c2n1
7 | 6% | 19% | – | Cc1ccc2cccc(OCc3c(C)ccc(N4CCC[C@H]4C(=O)O)c3C)c2n1
8 | 1% | 11% | – | Cc1ccc2cccc(OCc3c(C)ccc(N4CCC[C@@H]4C(=O)O)c3C)c2n1
